Results reported in patent US6133279A, “Therapeutic agents for renal diseases and organ preservatives” (Chugai Seiyaku Kabushiki Kaisha, priority 1996, dated 2000).
Like-named read-outs stand apart in the source and are kept apart here.

Tests used:
[1] = tested on: porcine kidney-derived LLC-PK1 cells; assay: Protective effect against oxidized LDL-induced injury of porcine kidney-derived LLC-PK1 cells (1); assay type: cell-based; conditions: Sus scrofa, LLC-PK1, 6 h, mean ± standard deviation, read-out: Cytoprotection rate (%)
[2] = tested on: puromycin-induced nephrosis model; assay: Puromycin-induced nephrosis (2), postadministration (in vivo); set-up: species or system rat (male SD rats); conditions: 200 mg/kg oral once a day from the day following puromycin
Procedure: Effect of the compounds of the present invention on an in vivo renal disease was studied using a puromycin-induced nephrosis model. A puromycin-induced renal failure model was prepared from rats in groups of 5-8 each (6 week-old male SD rats) fed with high-fat diet. High-fat diet feeding was started by free access to high-fat diet (cholesterol level 1.25%) from 7 days before puromycin treatment. Puromycin (puromycin aminonucleoside, SIGMA Chemical Co.) treatment was performed by intraperitoneal administration at a dose of 100 mg/kg. Test compounds were administered as a solution in soybean oil via oral route (4 ml/kg). Control group was orally administered soybean oil alone. Probucol and a water-soluble α-tocopherol analogue, Trolox, were used as reference control compounds. The compounds were orally administered once a day from the following day of the puromycin treatment. Renal functions were determined by using urine and blood samples. The volume of urine, urea nitrogen level and creatinine levels of serum and urine were evaluated to calculate creatinine clearance as an indication of renal functions.

[3] = literature; cited from earlier work
[4] = compound added 16 hours before adding oxidized LDL
[5] = compound added immediately before adding oxidized LDL

| SMILES | inhibition at 0.1 µM [1, 4] [%] | inhibition at 0.1 µM [1, 5] [%] | inhibition at 1 µM [1, 4] [%] | inhibition at 1 µM [1, 5] [%] | inhibition at 10 µM [1, 4] [%] | inhibition at 10 µM [1, 5] [%] | Creatinine ([2]; control 0.82 ± 0.07) [mg/dL] | Urine nitrogen ([2]; control 30.74 ± 10.95) [mg/dL] | Creatinine clearance ([2]; control 824 ± 108) [mL/day] | effect on renal disease models / renal functions (in words) [3] |
| --- | --- | --- | --- | --- | --- | --- | --- | --- | --- | --- |
| Cc1c(C)c2c(c(C)c1O)CCC(C)(C(=O)O)O2 (stereo not shown) [Trolox, reference compound] | 0.4 ± 1.3 | 0 | 6.4 ± 10.6 | -7.1 | 17.5 ± 16.9 | -4.9 ± 6.3 | 0.96 ± 0.14 | 31.91 ± 11.93 | 660 | – |
| Cc1c(C)c2c(c(C)c1O)CCC(C)(CCCC(C)CCCC(C)CCCC(C)C)O2 (stereo not drawn) [α-tocopherol, reference compound] | 7.2 ± 2.2 | -2.8 | 72.1 ± 13.8 | 8.2 ± 5.7 | 98.9 ± 1 | 2.7 ± 2.3 | – | – | – | its effect is not sufficient |
